Results published in PubChem BioAssay (NCI).
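Results reflect a 48-hour exposure of cells in 96-well plates to compound at five concentrations. At the TGI there is no net growth.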

Experiments:
Assay in all cases: NCI tumour cell line growth inhibition, 48 h
ACHN renal = test system: ACHN renal
NCI-H522 lung = test system: NCI-H522 lung
SF-295 CNS = test system: SF-295 CNS
HT29 colon = test system: HT29 colon
RXF 393 renal = test system: RXF 393 renal
SK-OV-3 ovarian = test system: SK-OV-3 ovarian
UACC-62 melanoma = test system: UACC-62 melanoma
SN12C renal = test system: SN12C renal
SK-MEL-2 melanoma = test system: SK-MEL-2 melanoma
HOP-62 NSCLC = test system: HOP-62 NSCLC
SK-MEL-5 melanoma = test system: SK-MEL-5 melanoma
A498 renal = test system: A498 renal
SNB-78 CNS = test system: SNB-78 CNS
HCT-116 colon = test system: HCT-116 colon
RPMI-8226 leukemia = test system: RPMI-8226 leukemia
M14 melanoma = test system: M14 melanoma
HCT-15 colon = test system: HCT-15 colon
UACC-257 melanoma = test system: UACC-257 melanoma
NCI-H23 lung = test system: NCI-H23 lung
MOLT-4 leukemia = test system: MOLT-4 leukemia
EKVX NSCLC = test system: EKVX NSCLC
NCI-H460 lung = test system: NCI-H460 lung
LXFL 529 NSCLC = test system: LXFL 529 NSCLC
M19-MEL melanoma = test system: M19-MEL melanoma
U251 CNS = test system: U251 CNS
HL-60(TB) leukemia = test system: HL-60(TB) leukemia
NCI-H226 lung = test system: NCI-H226 lung
KM20L2 colon = test system: KM20L2 colon
A549 NSCLC = test system: A549 NSCLC
786-0 renal = test system: 786-0 renal
HOP-92 NSCLC = test system: HOP-92 NSCLC
IGROV1 ovarian = test system: IGROV1 ovarian
SNB-75 CNS = test system: SNB-75 CNS
OVCAR-8 ovarian = test system: OVCAR-8 ovarian
SF-268 CNS = test system: SF-268 CNS
UO-31 renal = test system: UO-31 renal
SNB-19 CNS = test system: SNB-19 CNS
SK-MEL-28 melanoma = test system: SK-MEL-28 melanoma
CCRF-CEM leukemia = test system: CCRF-CEM leukemia
RXF-631 renal = test system: RXF-631 renal
LOX IMVI melanoma = test system: LOX IMVI melanoma
DMS 273 small cell lung = test system: DMS 273 small cell lung
K-562 leukemia = test system: K-562 leukemia
OVCAR-3 ovarian = test system: OVCAR-3 ovarian
OVCAR-5 ovarian = test system: OVCAR-5 ovarian
SW-620 colon = test system: SW-620 colon
CAKI-1 renal = test system: CAKI-1 renal
KM12 colon = test system: KM12 colon
OVCAR-4 ovarian = test system: OVCAR-4 ovarian
SF-539 CNS = test system: SF-539 CNS
TK-10 renal = test system: TK-10 renal
SR leukemia = test system: SR leukemia
COLO 205 colon = test system: COLO 205 colon
XF 498 CNS = test system: XF 498 CNS
HCC-2998 colon = test system: HCC-2998 colon
P388/ADR leukemia = test system: P388/ADR leukemia
SN12K1 renal = test system: SN12K1 renal
DMS 114 small cell lung = test system: DMS 114 small cell lung
MCF7 breast = test system: MCF7 breast
HOP-18 NSCLC = test system: HOP-18 NSCLC
P388 leukemia = test system: P388 leukemia
NCI/ADR-RES ovarian = test system: NCI/ADR-RES ovarian
MALME-3M melanoma = test system: MALME-3M melanoma
DLD-1 colon = test system: DLD-1 colon

CC(C)=NNC(=S)NC12CC3CC(CC(C3)C1)C2
TGI (ACHN renal): > 100 µM
TGI (NCI-H522 lung): > 100 µM
TGI (SF-295 CNS): > 100 µM
TGI (HT29 colon): > 100 µM
TGI (RXF 393 renal): > 100 µM
TGI (SK-OV-3 ovarian): > 100 µM
TGI (UACC-62 melanoma): > 100 µM
TGI (SN12C renal): > 100 µM
TGI (SK-MEL-2 melanoma): > 100 µM
TGI (HOP-62 NSCLC): > 100 µM
TGI (SK-MEL-5 melanoma): > 100 µM
TGI (A498 renal): > 100 µM
TGI (SNB-78 CNS): > 100 µM
TGI (HCT-116 colon): > 100 µM
TGI (RPMI-8226 leukemia): > 100 µM
TGI (M14 melanoma): > 100 µM
TGI (HCT-15 colon): > 100 µM
TGI (UACC-257 melanoma): > 100 µM
TGI (NCI-H23 lung): > 100 µM
TGI (MOLT-4 leukemia): > 100 µM
TGI (EKVX NSCLC): > 100 µM
TGI (NCI-H460 lung): > 100 µM
TGI (LXFL 529 NSCLC): > 100 µM
TGI (M19-MEL melanoma): > 100 µM
TGI (U251 CNS): > 100 µM
TGI (HL-60(TB) leukemia): > 100 µM
TGI (NCI-H226 lung): > 100 µM
TGI (KM20L2 colon): > 100 µM
TGI (A549 NSCLC): > 100 µM
TGI (786-0 renal): > 100 µM
TGI (HOP-92 NSCLC): > 100 µM
TGI (IGROV1 ovarian): > 100 µM
TGI (SNB-75 CNS): > 100 µM
TGI (OVCAR-8 ovarian): > 100 µM
TGI (SF-268 CNS): > 100 µM
TGI (UO-31 renal): > 100 µM
TGI (SNB-19 CNS): > 100 µM
TGI (SK-MEL-28 melanoma): > 100 µM
TGI (CCRF-CEM leukemia): > 100 µM
TGI (RXF-631 renal): > 100 µM
TGI (LOX IMVI melanoma): > 100 µM
TGI (DMS 273 small cell lung): > 100 µM
TGI (K-562 leukemia): > 100 µM
TGI (OVCAR-3 ovarian): > 100 µM
TGI (OVCAR-5 ovarian): > 100 µM
TGI (SW-620 colon): > 100 µM
TGI (CAKI-1 renal): > 100 µM
TGI (KM12 colon): > 100 µM
TGI (OVCAR-4 ovarian): > 100 µM
TGI (SF-539 CNS): > 100 µM
TGI (TK-10 renal): > 100 µM
TGI (SR leukemia): > 100 µM
TGI (COLO 205 colon): > 100 µM
TGI (XF 498 CNS): > 100 µM

Cc1ccc(C(=O)Nc2ncn(C3CC(O)C(CO)O3)c(=O)n2)cc1 (configuration not stated)
TGI (NCI-H522 lung): > 100 µM
TGI (HCC-2998 colon): > 100 µM
TGI (P388/ADR leukemia): 29.5 µM
TGI (SF-295 CNS): > 100 µM
TGI (HT29 colon): > 100 µM
TGI (RXF 393 renal): > 100 µM
TGI (SK-OV-3 ovarian): > 100 µM
TGI (UACC-62 melanoma): > 100 µM
TGI (SN12K1 renal): > 100 µM
TGI (SN12C renal): > 100 µM
TGI (SK-MEL-2 melanoma): > 100 µM
TGI (HOP-62 NSCLC): > 100 µM
TGI (SK-MEL-5 melanoma): > 100 µM
TGI (A498 renal): > 100 µM
TGI (SNB-78 CNS): > 100 µM
TGI (HCT-116 colon): > 100 µM
TGI (DMS 114 small cell lung): > 100 µM
TGI (RPMI-8226 leukemia): > 100 µM
TGI (MCF7 breast): > 100 µM
TGI (HCT-15 colon): > 100 µM
TGI (HOP-18 NSCLC): > 100 µM
TGI (P388 leukemia): > 100 µM
TGI (UACC-257 melanoma): > 100 µM
TGI (NCI-H23 lung): > 100 µM
TGI (MOLT-4 leukemia): 97.3 µM
TGI (NCI/ADR-RES ovarian): > 100 µM
TGI (EKVX NSCLC): > 100 µM
TGI (NCI-H460 lung): > 100 µM
TGI (M19-MEL melanoma): > 100 µM
TGI (U251 CNS): > 100 µM
TGI (NCI-H226 lung): > 100 µM
TGI (A549 NSCLC): > 100 µM
TGI (MALME-3M melanoma): > 100 µM
TGI (HOP-92 NSCLC): > 100 µM
TGI (IGROV1 ovarian): > 100 µM
TGI (SNB-75 CNS): > 100 µM
TGI (OVCAR-8 ovarian): > 100 µM
TGI (SF-268 CNS): > 100 µM
TGI (UO-31 renal): > 100 µM
TGI (SNB-19 CNS): > 100 µM
TGI (SK-MEL-28 melanoma): > 100 µM
TGI (CCRF-CEM leukemia): > 100 µM
TGI (LOX IMVI melanoma): > 100 µM
TGI (DMS 273 small cell lung): > 100 µM
TGI (K-562 leukemia): > 100 µM
TGI (OVCAR-3 ovarian): > 56.5 µM
TGI (OVCAR-5 ovarian): > 100 µM
TGI (SW-620 colon): > 100 µM
TGI (CAKI-1 renal): > 100 µM
TGI (KM12 colon): > 100 µM
TGI (OVCAR-4 ovarian): > 100 µM
TGI (SF-539 CNS): > 100 µM
TGI (COLO 205 colon): > 100 µM
TGI (XF 498 CNS): > 100 µM
TGI (DLD-1 colon): > 100 µM

CCCCCCCCCCOC(=O)NCCC
TGI (ACHN renal): > 100 µM
TGI (NCI-H522 lung): 50.4 µM
TGI (HCC-2998 colon): 76.8 µM
TGI (SF-295 CNS): > 100 µM
TGI (HT29 colon): 49.7 µM
TGI (RXF 393 renal): 39.9 µM
TGI (SK-OV-3 ovarian): > 100 µM
TGI (UACC-62 melanoma): > 100 µM
TGI (SN12C renal): 86.3 µM
TGI (SK-MEL-2 melanoma): 41 µM
TGI (SK-MEL-5 melanoma): 52.9 µM
TGI (A498 renal): > 100 µM
TGI (RPMI-8226 leukemia): 43.3 µM
TGI (M14 melanoma): > 100 µM
TGI (HCT-15 colon): 48.4 µM
TGI (HOP-18 NSCLC): > 100 µM
TGI (UACC-257 melanoma): 92.8 µM
TGI (NCI-H23 lung): > 100 µM
TGI (MOLT-4 leukemia): 43.6 µM
TGI (EKVX NSCLC): 67.7 µM
TGI (NCI-H460 lung): 65.9 µM
TGI (LXFL 529 NSCLC): > 100 µM
TGI (M19-MEL melanoma): > 100 µM
TGI (U251 CNS): 80.6 µM
TGI (HL-60(TB) leukemia): 32.7 µM
TGI (KM20L2 colon): 62.2 µM
TGI (A549 NSCLC): > 100 µM
TGI (MALME-3M melanoma): 54.8 µM
TGI (786-0 renal): > 100 µM
TGI (HOP-92 NSCLC): 48.1 µM
TGI (IGROV1 ovarian): > 100 µM
TGI (SNB-75 CNS): > 100 µM
TGI (OVCAR-8 ovarian): > 100 µM
TGI (SF-268 CNS): > 100 µM
TGI (UO-31 renal): 50.6 µM
TGI (SNB-19 CNS): > 100 µM
TGI (SK-MEL-28 melanoma): > 100 µM
TGI (CCRF-CEM leukemia): 48.4 µM
TGI (RXF-631 renal): > 100 µM
TGI (LOX IMVI melanoma): 36.3 µM
TGI (DMS 273 small cell lung): 54.9 µM
TGI (K-562 leukemia): > 100 µM
TGI (OVCAR-3 ovarian): > 100 µM
TGI (OVCAR-5 ovarian): 93.9 µM
TGI (SW-620 colon): > 100 µM
TGI (CAKI-1 renal): > 100 µM
TGI (KM12 colon): > 100 µM
TGI (OVCAR-4 ovarian): > 100 µM
TGI (SF-539 CNS): > 100 µM
TGI (TK-10 renal): > 100 µM
TGI (COLO 205 colon): > 100 µM
TGI (XF 498 CNS): 43.6 µM
TGI (DLD-1 colon): > 100 µM
